Results on 29 molecules are retold here after US9169260B2 (MERCK SHARP & DOHME CORP., priority 2011, dated 2015).

The structures appear in SMILES notation.

The target of one assay is GST tagged IRAK-4 (Homo sapiens (Human), UniProt Q9NWZ3). The assay is described as follows: IRAK-4 Kinase Assay (IMAP fluorescence polarization). The following applies: 100 μM ATP, 30 minutes at 25° C. The assay is classed as biochemical. The protocol: The kinase activity of IRAK-4 is determined by its ability to catalyze the phosphorylation of a fluorescent polypeptide substrate. The extent of phosphorylation is measured using the IMAP technology (Molecular Devices) where the phosphorylated fluorescent substrate binds to the large M(III)-based nanoparticles which reduces the rotational speed of the substrate and thus increases its fluorescent polarization (FP).
Sequence of GST tagged IRAK-4 (Q9NWZ3 whole entry): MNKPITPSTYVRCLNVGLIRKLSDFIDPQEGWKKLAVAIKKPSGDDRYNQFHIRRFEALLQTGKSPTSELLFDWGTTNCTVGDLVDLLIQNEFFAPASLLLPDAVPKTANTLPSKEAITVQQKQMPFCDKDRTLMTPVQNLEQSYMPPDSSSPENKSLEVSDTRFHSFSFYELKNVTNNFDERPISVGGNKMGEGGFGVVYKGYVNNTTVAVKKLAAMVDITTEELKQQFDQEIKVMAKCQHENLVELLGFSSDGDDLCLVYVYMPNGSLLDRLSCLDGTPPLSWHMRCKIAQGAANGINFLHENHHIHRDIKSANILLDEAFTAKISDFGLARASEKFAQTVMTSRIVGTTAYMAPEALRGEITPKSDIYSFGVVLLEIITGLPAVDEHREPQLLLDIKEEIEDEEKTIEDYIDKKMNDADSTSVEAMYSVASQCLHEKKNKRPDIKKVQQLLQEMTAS
20 μl reaction mixture contains 10 mM TriHCl, pH 7.2, 0.5 nM GST tagged IRAK-4 (SignalChem), 100 nM fluorescent peptide substrate (RP7030, Molecular Devices), 100 μM ATP, 1 mM DTT, 1 mM MgCl2, and 0.01% Tween 20. The reaction is initiated by the addition of ATP. After incubation for 30 minutes at 25° C., 60 μl of Progressive IMAP Reagent (Molecular Devices) is added to stop the reaction. Change in RP7030's FP is determined by a FP reader (Analyst HT, LH, BioSystems).
For orientation: IC50 means the concentration needed to halve the response being measured. The molecule `CCCC(C)N1CCC(c2cc(NC(=O)c3cnn4cccnc34)n(-c3ccc(C)cc3)n2)CC1` (centres unmarked) [Example 210] showed an IC50 below 0.1 µM.
Still for that read-out and setting: as for `Cc1ccc(-n2nc(C3CCN(C4CCN(C5CC5)CC4)CC3)cc2NC(=O)c2cnn3cccnc23)nc1` [Example 267, N-[3-(1′-cyclopropyl-1,4′-bipiperidin-4-yl)-1-(5-methylpyridin-2-yl)-1H-pyrazol-5-yl]pyrazolo[1,5-a]pyrimidine-3-carboxamide], the figure is below 0.1 µM; as for `Cc1ccc(-n2nc(C3CCN(C4CCC(C)C4)CC3)cc2NC(=O)c2cnn3cccnc23)nc1` (centres unmarked) [Example 272, N-{3-[1-(3-methylcyclopentyl)piperidin-4-yl]-1-(5-methylpyridin-2-yl)-1H-pyrazol-5-yl}pyrazolo[1,5-a]pyrimidine-3-carboxamide], below 0.1 µM.
`CNS(=O)(=O)c1ccc(-c2cc(NC(=O)c3cnn4cccnc34)n(-c3ccc(F)cc3F)n2)cc1` [Example 34, N-(1-(2,4-difluorophenyl)-3-(4-(N-methylsulfamoyl)phenyl)-1H-pyrazol-5-yl)pyrazolo[1,5-a]pyrimidine-3-carboxamide] gave an IC50 below 0.1 µM.
`Cc1ccc(-n2nc(C3CCN(C4CCCC(C)C4)CC3)cc2NC(=O)c2cnn3cccnc23)nc1` (centres unmarked) [Example 277, N-{3-[1-(3-methylcyclohexyl)piperidin-4-yl]-1-(5-methylpyridin-2-yl)-1H-pyrazol-5-yl}pyrazolo[1,5-a]pyrimidine-3-carboxamide] returned an IC50 below 0.1 µM.
Same read-out and setting: as for `O=C(Nc1cc(C2CCNCC2)nn1-c1ccc(C2CC2)cc1F)c1cnn2cccnc12` [Example 72, N-(1-(4-cyclopropyl-2-fluorophenyl)-3-(piperidin-4-yl)-1H-pyrazol-5-yl)pyrazolo[1,5-a]pyrimidine-3-carboxamide], the figure is below 0.1 µM; as for `CC1(c2cc(NC(=O)c3cnn4cccnc34)n(-c3ccc(CN)cn3)n2)CC1` [Example 176, N-(1-(5-(aminomethyl)pyridin-2-yl)-3-(1-methylcyclopropyl)-1H-pyrazol-5-yl)pyrazolo[1,5-a]pyrimidine-3-carboxamide], below 0.1 µM; as for `COC(=O)N1CCC(c2cc(NC(=O)c3cnn4cc(Br)cnc34)n(-c3ccc(C)cc3)n2)CC1` [Example 118, methyl 4-(5-(6-bromopyrazolo[1,5-a]pyrimidine-3-carboxamido)-1-(p-tolyl)-1H-pyrazol-3-yl)piperidine-1-carboxylate], below 0.1 µM.
`CNS(=O)(=O)c1ccc(-c2cc(NC(=O)c3cnn4cccnc34)n(-c3ccc(C)cc3)n2)cc1` [Example 347, N-{1-(4-methylphenyl)-3-[4-(methylsulfamoyl)phenyl]-1H-pyrazol-5-yl}pyrazolo[1,5-a]pyrimidine-3-carboxamide]: the IC50 is below 0.1 µM.
For `Cc1ccc(-n2nc(C3CCN(C4CCC(C#N)CC4)CC3)cc2NC(=O)c2cnn3cccnc23)cc1` (centres unmarked) [Example 253, N-{3-[1-(4-cyanocyclohexyl)piperidin-4-yl]-1-(4-methylphenyl)-1H-pyrazol-5-yl}pyrazolo[1,5-a]pyrimidine-3-carboxamide], the IC50 was below 0.1 µM.
Turning to `COc1cccc(CN2CC(c3cc(NC(=O)c4cnn5cccnc45)n(-c4ccc(C)cc4)n3)C2)n1` [Example 315, N-[3-{1-[(6-methoxypyridin-2-yl)methyl]azetidin-3-yl}-1-(4-methylphenyl)-1H-pyrazol-5-yl]pyrazolo pyrimidine-3-carboxamide], the IC50 is below 0.1 µM.
Same read-out and setting: with `Cc1ccc(-n2nc(C3=CCN(S(C)(=O)=O)CC3)cc2NC(=O)c2cnn3cccnc23)cc1` [Example 139, N-(3-(1-(methylsulfonyl)-1,2,3,6-tetrahydropyridin-4-yl)-1-(p-tolyl)-1H-pyrazol-5-yl)pyrazolo[1,5-a]pyrimidine-3-carboxamide] the figure was below 0.1 µM; with `Cc1ccc(-n2nc(C3CCN(C(C)C)CC3)cc2NC(=O)c2cnn3cccnc23)nc1` [Example 270, N-{3-[1-(1-methylethyl)piperidin-4-yl]-1-(5-methylpyridin-2-yl)-1H-pyrazol-5-yl}pyrazolo[1,5-a]pyrimidine-3-carboxamide], below 0.1 µM.
Still for that read-out and setting: as for `Cc1ccc(-n2nc(C3CCC(=O)CC3)cc2NC(=O)c2cnn3cccnc23)cc1` [Example 1, N-(3-(4-oxocyclohexyl)-1-p-tolyl-1H-pyrazol-5-yl)pyrazolo[1,5-a]pyrimidine-3-carboxamide], the figure is below 0.1 µM.
Same read-out and setting: as for `CCN(CC)S(=O)(=O)c1ccc(-c2cc(NC(=O)c3cnn4cccnc34)n(-c3ccc(C)cc3)n2)cc1` [Example 343, N-{3-[4-(diethylsulfamoyl)phenyl]-1-(4-methylphenyl)-1H-pyrazol-5-yl}pyrazolo[1,5-a]pyrimidine-3-carboxamide], the figure is below 0.1 µM; as for `CS(=O)(=O)N1CCC(c2cc(NC(=O)c3cnn4cccnc34)n(-c3ccc(C4CC4)cc3)n2)CC1` [Example 53, N-(1-(4-cyclopropylphenyl)-3-(1-(methylsulfonyl)piperidin-4-yl)-1H-pyrazol-5-yl)pyrazolo[1,5-a]pyrimidine-3-carboxamide], below 0.1 µM; as for `COc1ccc(-n2nc(C3CCN(C(C)C)CC3)cc2NC(=O)c2cnn3cccnc23)cc1` [Example 47, N-(3-(1-isopropylpiperidin-4-yl)-1-(4-methoxyphenyl)-1H-pyrazol-5-yl)pyrazolo[1,5-a]pyrimidine-3-carboxamide], below 0.1 µM.

The assay is the same for the next values; noted with them: 100 μM ATP, 30 minutes at 25° C.; μM.
`Cc1ccc(-n2nc(C3CCN(C4CN(C(=O)NC(C)C)C4)CC3)cc2NC(=O)c2cnn3cccnc23)cc1` [Example 235, N-[3-(1-{1-[(1-methylethyl)carbamoyl]azetidin-3-yl}piperidin-4-yl)-1-(4-methylphenyl)-1H-pyrazol-5-yl]pyrazolo[1,5-a]pyrimidine-3-carboxamide] gave an IC50 below 1 µM.
Same read-out and setting: with `Cc1ccc(-n2nc(C3CCN(S(=O)(=O)CCc4ccccc4)CC3)cc2NC(=O)c2cnn3cccnc23)cc1` [Example 395, N-[1-(4-methylphenyl)-3-{1-[(2-phenylethyl)sulfonyl]piperidin-4-yl}-1H-pyrazol-5-yl]pyrazolo[1,5-a]pyrimidine-3-carboxamide] the figure was below 1 µM; with `COc1ccc(S(=O)(=O)N2CCC(c3cc(NC(=O)c4cnn5cccnc45)n(-c4ccc(C)cc4)n3)CC2)cc1OC` [Example 359, N-[3-{1-[(3,4-dimethoxyphenyl)sulfonyl]piperidin-4-yl}-1-(4-methylphenyl)-1H-pyrazol-5-yl]pyrazolo[1,5-a]pyrimidine-3-carboxamide], below 1 µM; with `Cc1ccc(-n2nc(-c3ccc(F)cc3)cc2NC(=O)c2cnn3cccnc23)cc1` [Example 135, N-(3-(4-fluorophenyl)-1-(p-tolyl)-1H-pyrazol-5-yl)pyrazolo[1,5-a]pyrimidine-3-carboxamide], above 1 µM.
The same measure, in the same setting: with `Cc1ccc(-n2nc(-c3csc(N4CCOCC4)n3)cc2NC(=O)c2cnn3cccnc23)cc1` [Example 335, N-[1-(4-methylphenyl)-3-(2-morpholin-4-yl-1,3-thiazol-4-yl)-1H-pyrazol-5-yl]pyrazolo[1,5-a]pyrimidine-3-carboxamide] the figure was below 1 µM; with `Cc1ccc(-n2nc(C3CCN(S(=O)(=O)C4CCCCC4)CC3)cc2NC(=O)c2cnn3cccnc23)cc1` [Example 373, N-{3-[1-(cyclohexylsulfonyl)piperidin-4-yl]-1-(4-methylphenyl)-1H-pyrazol-5-yl}pyrazolo[1,5-a]pyrimidine-3-carboxamide], below 1 µM; with `Cc1ccc(-n2nc(C3CCNCC3)cc2NC(=O)c2cnn3cccnc23)c(Cl)c1` [Example 65, N-(1-(2-chloro-4-methylphenyl)-3-(piperidin-4-yl)-1H-pyrazol-5-yl)pyrazolo[1,5-a]pyrimidine-3-carboxamide], below 1 µM.
Same read-out and setting: as for `Cc1ccc(-n2nc(C3CCN(C4CN(S(=O)(=O)C(C)C)C4)CC3)cc2NC(=O)c2cnn3cccnc23)cc1` [Example 246, N-[3-(1-{1-[(1-methylethyl)sulfonyl]azetidin-3-yl}piperidin-4-yl)-1-(4-methylphenyl)-1H-pyrazol-5-yl]pyrazolo[1,5-a]pyrimidine-3-carboxamide], the figure is below 1 µM; as for `CCC(=O)N1CC(N2CCC(c3cc(NC(=O)c4cnn5cccnc45)n(-c4ccc(C)cc4)n3)CC2)C1` [Example 249, N-{1-(4-methylphenyl)-3-[1-(1-propanoylazetidin-3-yl)piperidin-4-yl]-1H-pyrazol-5-yl}pyrazolo[1,5-a]pyrimidine-3-carboxamide], below 1 µM; as for `COc1ccc(-n2nc(-c3ccncc3)cc2NC(=O)c2cnn3cccnc23)cc1` [Example 127, N-(1-(4-methoxyphenyl)-3-(pyridin-4-yl)-1H-pyrazol-5-yl)pyrazolo[1,5-a]pyrimidine-3-carboxamide], below 1 µM.
Take `NC(=O)c1ccc(-n2nc(C3CCNCC3)cc2NC(=O)c2cnn3cccnc23)nc1` [Example 160, N-(1-(5-carbamoylpyridin-2-yl)-3-(piperidin-4-yl)-1H-pyrazol-5-yl)pyrazolo[1,5-a]pyrimidine-3-carboxamide]: the IC50 was below 1 µM.
Same read-out and setting: with `Cc1ccc(-n2nc(C3CCN(S(=O)(=O)c4cccnc4Cl)CC3)cc2NC(=O)c2cnn3cccnc23)cc1` [Example 388, N-[3-{1-[(2-chloropyridin-3-yl)sulfonyl]piperidin-4-yl}-1-(4-methylphenyl)-1H-pyrazol-5-yl]pyrazolo[1,5-a]pyrimidine-3-carboxamide] the figure was below 1 µM.
